Results on one compound are retold here after BindingDB's records for PubMed 9655904 (Parke-Davis Pharmaceutical Research, 1998).

This assay deals with Fibroblast growth factor receptor 1 (Homo sapiens, UniProt P11362).

Each structure is given as a SMILES string.

Fibroblast growth factor receptor 1, sequence (P11362 whole entry): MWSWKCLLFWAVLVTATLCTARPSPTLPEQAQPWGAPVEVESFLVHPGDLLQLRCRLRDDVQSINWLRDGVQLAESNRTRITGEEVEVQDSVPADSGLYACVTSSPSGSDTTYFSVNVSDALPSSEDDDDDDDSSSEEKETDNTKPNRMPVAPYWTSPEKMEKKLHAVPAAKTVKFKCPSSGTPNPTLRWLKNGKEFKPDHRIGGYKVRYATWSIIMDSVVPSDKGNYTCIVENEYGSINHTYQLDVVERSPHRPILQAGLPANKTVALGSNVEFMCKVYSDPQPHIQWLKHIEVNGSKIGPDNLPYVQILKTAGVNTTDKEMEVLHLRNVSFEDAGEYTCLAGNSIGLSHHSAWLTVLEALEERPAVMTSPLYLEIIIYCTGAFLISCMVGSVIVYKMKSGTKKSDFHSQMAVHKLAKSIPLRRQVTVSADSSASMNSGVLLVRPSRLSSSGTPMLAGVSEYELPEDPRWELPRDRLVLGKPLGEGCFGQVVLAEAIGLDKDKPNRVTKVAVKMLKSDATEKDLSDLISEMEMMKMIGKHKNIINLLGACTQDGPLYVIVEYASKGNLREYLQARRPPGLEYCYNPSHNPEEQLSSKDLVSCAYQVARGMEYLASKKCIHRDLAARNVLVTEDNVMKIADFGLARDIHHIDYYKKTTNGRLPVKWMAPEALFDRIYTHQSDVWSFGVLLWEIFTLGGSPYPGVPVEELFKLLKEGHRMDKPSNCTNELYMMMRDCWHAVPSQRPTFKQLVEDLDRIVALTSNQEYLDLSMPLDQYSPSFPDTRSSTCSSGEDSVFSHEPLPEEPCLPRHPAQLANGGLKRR

`COc1cc(OC)cc(-c2cc3cnc(N)nc3nc2NC(=O)NC(C)(C)C)c1` [6-arylpyrido[2,3-d]pyrimidine deriv. 25] came in with a Ki of 45.2 nM. That is a double-digit nanomolar value.
